Test results taken from the supplement of paper PMC4977894.
± gives the standard deviation of the averaged measurements.

Assays:
[1] = test system: Homo sapiens (human subject panel, olfactory perception); assay: perceived odor familiarity rating (rating 0-100); higher = more familiar
Summary of the method: (§1)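 Stimuli were molecules diluted in paraffin oil at high and low concentrations, with 1 mL of each sniffed in randomized order across ten visits of 100 stimuli. Participants were 55 healthy humans aged 18–50, excluding the six lowest performers. Subjects who smelled a stimulus moved a computerized slider away from its starting point of 50, and positions were rescaled to 0–100. Familiarity, intensity and pleasantness are each reported as an average over subjects.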

[2] = test system: Homo sapiens (human subject panel, olfactory perception); assay: perceived odor pleasantness rating (rating 0-100); higher = more pleasant
Summary of the method: as §1

[3] = test system: Homo sapiens (human subject panel, olfactory perception); assay: perceived odor intensity rating (rating 0-100); higher = stronger perceived smell
Summary of the method: as §1

[4] = odor dilution in paraffin oil: 1/10
[5] = odor dilution in paraffin oil: 1/1,000
[6] = odor dilution in paraffin oil: 1/100,000
[7] = odor dilution in paraffin oil: 1/10,000,000

Row | Structure (SMILES) | perceived odor familiarity rating [1, 4] | perceived odor familiarity rating [1, 5] | perceived odor pleasantness rating [2, 4] | perceived odor pleasantness rating [2, 5] | perceived odor intensity rating [3, 4] | perceived odor intensity rating [3, 5] | perceived odor familiarity rating [1, 6] | perceived odor pleasantness rating [2, 6] | perceived odor intensity rating [3, 6] | perceived odor familiarity rating [1, 7] | perceived odor pleasantness rating [2, 7] | perceived odor intensity rating [3, 7]
1 | CC(=O)OC1CC(C)CCC1C(C)C [L-Menthyl acetate (replicate)] | 56.9 ± 30 | 39.2 ± 30 | 61.6 ± 21 | 58.9 ± 18 | 59.6 ± 29 | 34.3 ± 28 |  |  |  |  |  | 
2 | CC(=O)OC1CC(C)CCC1C(C)C [L-Menthyl acetate] | 57.8 ± 31 | 45.6 ± 25 | 61.5 ± 25 | 53.4 ± 23 | 63.7 ± 26 | 15.4 ± 24 |  |  |  |  |  | 
3 | CSCC[C@H](N)C(=O)O [L-Methionine] | 45.7 ± 36 | 41.6 ± 30 | 18.4 ± 21 | 31.5 ± 25 | 78.9 ± 23 | 48.3 ± 34 |  |  |  |  |  | 
4 | N[C@@H](Cc1ccccc1)C(=O)O [L-Phenylalanine] | 39.1 ± 28 | 33.7 ± 31 | 39.9 ± 28 | 44.3 ± 29 | 34.4 ± 33 | 30.1 ± 30 |  |  |  |  |  | 
5 | O=C(O)[C@@H]1CCCN1 [L-Proline] | 45.3 ± 30 | 45.8 ± 35 | 27.9 ± 28 | 22.8 ± 24 | 81.4 ± 20 | 60.2 ± 31 |  |  |  |  |  | 
6 | N[C@@H](Cc1ccc(O)cc1)C(=O)O [L-Tyrosine] |  | 37.4 ± 27 |  | 44 ± 23 |  | 30.7 ± 28 | 26.6 ± 26 | 44.1 ± 30 | 25.3 ± 33 |  |  | 
7 | CC(C)[C@H](N)C(=O)O [L-Valine] | 39.1 ± 31 | 41.5 ± 34 | 40.9 ± 25 | 50.5 ± 24 | 42.1 ± 29 | 33.1 ± 33 |  |  |  |  |  | 
8 | CCCCCCCCCCCC(=O)O [Lauric acid (replicate)] | 50.6 ± 32 | 34.1 ± 27 | 28.8 ± 22 | 35.4 ± 22 | 72.2 ± 25 | 36 ± 32 |  |  |  |  |  | 
9 | CCCCCCCCCCCC(=O)O [Lauric acid] | 49.1 ± 34 | 37.4 ± 33 | 28.7 ± 20 | 45.8 ± 25 | 71.6 ± 27 | 25.3 ± 24 |  |  |  |  |  | 
10 | CCCCCCCCCCCCOC(C)=O [Lauryl acetate] |  | 33.3 ± 27 |  | 43.5 ± 24 |  | 33 ± 30 | 36.6 ± 27 | 49.5 ± 26 | 23 ± 27 |  |  | 
11 | CCCCCCCCCCCCO [Lauryl alcohol] | 50.1 ± 29 | 32 ± 30 | 35.8 ± 25 | 43 ± 26 | 64.6 ± 28 | 24.8 ± 31 |  |  |  |  |  | 
12 | C=CC(C)(O)CCC=C(C)C (stereo not given) [Linalool] |  | 60.6 ± 32 |  | 74.6 ± 19 |  | 62.1 ± 26 | 39.9 ± 30 | 66 ± 23 | 32.6 ± 25 |  |  | 
13 | C=CC(C)(CCC=C(C)C)OC(C)=O (stereo not given) [Linalyl acetate] |  | 39.3 ± 31 |  | 56.9 ± 24 |  | 29.8 ± 30 | 38.1 ± 31 | 44.5 ± 21 | 31.5 ± 30 |  |  | 
14 | CCCCC/C=C\C/C=C\CCCCCCCC(=O)O [Linoleic acid (replicate)] | 46.6 ± 35 | 53.2 ± 30 | 20.4 ± 24 | 31.7 ± 20 | 91.6 ± 11 | 66.6 ± 26 |  |  |  |  |  | 
15 | CCCCC/C=C\C/C=C\CCCCCCCC(=O)O [Linoleic acid] | 48.7 ± 34 | 41.2 ± 27 | 13.9 ± 15 | 31.2 ± 21 | 90.8 ± 13 | 64.8 ± 23 |  |  |  |  |  | 
16 | CC(C)CC(=O)O[C@@H]1C[C@H](C)CC[C@H]1C(C)C [Menthyl isovalerate] |  | 39.5 ± 27 |  | 56.9 ± 25 |  | 33.9 ± 28 | 35 ± 33 | 49.4 ± 24 | 18.6 ± 24 |  |  | 
17 | COC(=O)c1ccccc1OC [Methyl 2-methoxybenzoate] |  | 40.8 ± 31 |  | 48.1 ± 26 |  | 47.5 ± 31 | 37.5 ± 28 | 45.9 ± 25 | 20.6 ± 24 |  |  | 
18 | CCCCCCC#CC(=O)OC [Methyl 2-nonynoate] |  | 61.9 ± 33 |  | 65 ± 27 |  | 71.1 ± 21 | 55.3 ± 28 | 58.5 ± 29 | 55.3 ± 30 |  |  | 

Row | Structure (SMILES) | perceived odor familiarity rating [1, 4] | perceived odor familiarity rating [1, 5] | perceived odor pleasantness rating [2, 4] | perceived odor pleasantness rating [2, 5] | perceived odor intensity rating [3, 4] | perceived odor intensity rating [3, 5] | perceived odor familiarity rating [1, 6] | perceived odor pleasantness rating [2, 6] | perceived odor intensity rating [3, 6] | perceived odor familiarity rating [1, 7] | perceived odor pleasantness rating [2, 7] | perceived odor intensity rating [3, 7]
19 | COC(=O)CCSC [Methyl 3-(methylthio)propionate] |  |  |  |  |  |  | 31 ± 25 | 41 ± 21 | 25.6 ± 28 | 40.3 ± 32 | 43.2 ± 26 | 27.7 ± 30
20 | COC(=O)CSC [Methyl (methylthio)acetate] |  | 45.8 ± 30 |  | 17.9 ± 24 |  | 81.7 ± 16 | 38.9 ± 32 | 37.7 ± 27 | 37.8 ± 31 |  |  | 
21 | CCC(=O)OC [Methyl Propionate] |  | 48.6 ± 31 |  | 55.8 ± 27 |  | 38.7 ± 31 | 32.6 ± 29 | 55.7 ± 20 | 19 ± 23 |  |  | 
22 | COC(=O)c1ccccc1N [Methyl anthranilate] |  | 61.8 ± 31 |  | 65.3 ± 24 |  | 74.6 ± 18 | 56.7 ± 30 | 64 ± 25 | 58.3 ± 30 |  |  | 
23 | CC(=O)c1ccc2ccccc2c1 [Methyl beta-naphthyl ketone] | 58 ± 30 | 62.6 ± 27 | 54.4 ± 30 | 60.7 ± 25 | 78.8 ± 16 | 63.8 ± 26 |  |  |  |  |  | 
24 | CCCC(=O)OC [Methyl butyrate] |  | 48.2 ± 29 |  | 32.9 ± 31 |  | 79.2 ± 19 | 45.1 ± 32 | 27.8 ± 25 | 42.8 ± 30 |  |  | 
25 | CCCCCCCC(=O)OC [Methyl caprylate] |  | 46.9 ± 32 |  | 68.5 ± 23 |  | 47.9 ± 33 | 40.5 ± 26 | 50.1 ± 26 | 40.6 ± 29 |  |  | 
26 | CCCCCCC(=O)OC [Methyl heptanoate] |  | 48.9 ± 33 |  | 58.8 ± 25 |  | 52.9 ± 30 | 39.5 ± 30 | 53 ± 24 | 21.7 ± 28 |  |  | 
27 | C=C(C)C(=O)OC [Methyl methacrylate] |  | 45.7 ± 28 |  | 39.3 ± 25 |  | 55 ± 33 | 37 ± 26 | 47.4 ± 26 | 15.1 ± 22 |  |  | 
28 | COC(=O)c1cccnc1 [Methyl nicotinate] | 37.2 ± 30 | 43.5 ± 30 | 38.4 ± 29 | 38.3 ± 24 | 71.6 ± 28 | 63 ± 26 |  |  |  |  |  | 
29 | CCCCCCCCC(=O)OC [Methyl nonanoate] |  | 50.8 ± 30 |  | 57.8 ± 26 |  | 57 ± 28 | 45.9 ± 30 | 57.9 ± 24 | 28.8 ± 30 |  |  | 
30 | COC(=O)Cc1ccccc1 [Methyl phenylacetate] |  | 54 ± 30 |  | 42.9 ± 30 |  | 69.1 ± 25 | 49.6 ± 30 | 42.3 ± 28 | 58.1 ± 30 |  |  | 
31 | CS(C)(=O)=O [Methyl sulfone] | 51.6 ± 29 | 39.4 ± 28 | 61.1 ± 24 | 47.6 ± 20 | 42.4 ± 32 | 22.7 ± 25 |  |  |  |  |  | 
32 | C[S+](C)[O-] [Methyl sulfoxide] | 41.7 ± 33 | 41.6 ± 29 | 36.7 ± 24 | 32.1 ± 26 | 50.7 ± 30 | 35.3 ± 31 |  |  |  |  |  | 
33 | CCCC(=O)SC [Methyl thiobutyrate] |  | 50.2 ± 36 |  | 4.96 ± 12 |  | 92.4 ± 14 | 45.1 ± 32 | 16.2 ± 22 | 69.8 ± 26 |  |  | 
34 | CCCCCC/C=C/C(=O)OC [Methyl trans-2-nonenoate] |  | 53.4 ± 27 |  | 50.3 ± 27 |  | 49.1 ± 27 | 37.1 ± 26 | 56.4 ± 17 | 20.3 ± 22 |  |  | 
35 | CCCCC(=O)OC [Methyl valerate] |  | 55.1 ± 31 |  | 42.4 ± 31 |  | 65.2 ± 26 | 46.1 ± 28 | 48.8 ± 28 | 49.4 ± 30 |  |  | 
